Measurements as given in patent publication US20080051429A1, “USE OF 4-AMINO-PIPERIDINES FOR TREATING SLEEP DISORDERS” (priority 2006, published 2008).

Key:
Experiment in all cases: R-SAT broad profiling
Type in all cases: cell-based
endothelinB = molecular target: T1, endothelinB (Homo sapiens, UniProt P24530); details: agonist; read-out: pEC50/pIC50 (converted)
T1 construct: expressed in transfected cells; host or cells: NIH3T3
Experimental: (§1) The functional receptor assay, Receptor Selection and Amplification Technology (R-SAT), was used (with minor modifications from that previously described U.S. Pat. No. 5,707,798) to screen compounds for efficacy at the 5-HT2A receptor. Briefly, NIH3T3 cells were grown in 96 well tissue culture plates to 70-80% confluence. Cells were transfected for 12-16 hours with plasmid DNAs using superfect (Qiagen Inc.) as per manufacture's protocols. R-SAT's were generally performed with 50 ng/well of receptor and 20 ng/well of Beta-galactosidase plasmid DNA. All receptor and G-protein constructs used were in the pSI mammalian expression vector (Promega Inc) as described in U.S. Pat. No. 5,707,798. The 5HT2A receptor gene was amplified by nested PCR from brain cDNA using the oligodeoxynucleotides based on the published sequence (see Saltzman et. al. Biochem. Biophys. Res. Comm. 181:1469-78 (1991)). Large-scale transfections, cells were transfected for 12-16 hours, then trypsinized and frozen in DMSO. Frozen cells were later thawed, plated at 10,000-40,000 cells per well of a 96 well plate that contained drug. With both methods, cells were then grown in a humidified atmosphere with 5% ambient CO2 for five days. Media was then removed from the plates and marker gene activity was measured by the addition of the beta-galactosidase substrate ONPG (in PBS with 5% NP-40). The resulting colorimetric reaction was measured in a spectrophotometric plate reader (Titertek Inc.)at […]. All data were analyzed using the computer program XLFit (IDBSm). Efficacy is the percent maximal repression compared to repression by a control compound (ritanserin in the case of 5HT2A). pIC50 is the negative of the log(IC50), where IC50 is the calculated concentration in Molar that produces 50% maximal repression.
(§2) The R-SAT assay (described above in example 136) was used to investigate the selectivity of 2-(4-Methoxyphenyl)-N-(4-methylbenzyl)-N-(1-methylpiperidin-4-yl)acetamide hydrochloride.

alpha 2C = molecular target: T2, alpha 2C (Homo sapiens, UniProt P18825); details: read-out: pEC50/pIC50 (converted)
T2 construct: expressed in transfected cells; host or cells: NIH3T3
T2 sequence (P18825 1-462): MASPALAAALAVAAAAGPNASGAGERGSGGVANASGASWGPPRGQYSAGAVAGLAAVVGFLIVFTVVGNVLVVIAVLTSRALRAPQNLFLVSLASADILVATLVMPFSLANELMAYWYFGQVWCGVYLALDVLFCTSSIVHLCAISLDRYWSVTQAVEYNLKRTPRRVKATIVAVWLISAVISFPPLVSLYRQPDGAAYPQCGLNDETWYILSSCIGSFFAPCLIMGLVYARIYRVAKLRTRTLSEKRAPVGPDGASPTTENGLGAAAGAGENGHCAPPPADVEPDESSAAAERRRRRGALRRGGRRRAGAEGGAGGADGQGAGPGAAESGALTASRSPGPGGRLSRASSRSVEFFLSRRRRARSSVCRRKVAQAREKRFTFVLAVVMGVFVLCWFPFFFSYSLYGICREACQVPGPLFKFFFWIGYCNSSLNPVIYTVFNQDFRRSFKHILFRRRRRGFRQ
Experimental: as §1, §2

5-HT7 = molecular target: T3, 5-HT7 (Homo sapiens, UniProt P34969); details: read-out: pEC50/pIC50 (converted)
T3 construct: expressed in transfected cells
T3 sequence (P34969 whole entry, species assumed): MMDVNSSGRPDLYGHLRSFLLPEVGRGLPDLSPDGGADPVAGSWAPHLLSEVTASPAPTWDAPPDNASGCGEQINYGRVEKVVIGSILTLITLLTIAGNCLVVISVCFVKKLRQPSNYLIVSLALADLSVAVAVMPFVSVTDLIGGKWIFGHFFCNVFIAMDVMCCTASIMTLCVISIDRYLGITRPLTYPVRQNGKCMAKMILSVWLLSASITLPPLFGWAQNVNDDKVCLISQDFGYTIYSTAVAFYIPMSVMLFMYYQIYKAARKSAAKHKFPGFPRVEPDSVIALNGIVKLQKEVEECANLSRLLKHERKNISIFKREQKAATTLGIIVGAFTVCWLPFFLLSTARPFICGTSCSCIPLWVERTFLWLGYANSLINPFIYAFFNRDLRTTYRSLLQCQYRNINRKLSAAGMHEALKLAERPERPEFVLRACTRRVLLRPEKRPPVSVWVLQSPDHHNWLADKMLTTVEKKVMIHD
Experimental: as §1, §2

m2 = molecular target: T4, m2 (Homo sapiens, UniProt P08172); details: read-out: pEC50/pIC50 (converted)
T4 construct: expressed in transfected cells; host or cells: NIH3T3
T4 sequence (P08172 1-466): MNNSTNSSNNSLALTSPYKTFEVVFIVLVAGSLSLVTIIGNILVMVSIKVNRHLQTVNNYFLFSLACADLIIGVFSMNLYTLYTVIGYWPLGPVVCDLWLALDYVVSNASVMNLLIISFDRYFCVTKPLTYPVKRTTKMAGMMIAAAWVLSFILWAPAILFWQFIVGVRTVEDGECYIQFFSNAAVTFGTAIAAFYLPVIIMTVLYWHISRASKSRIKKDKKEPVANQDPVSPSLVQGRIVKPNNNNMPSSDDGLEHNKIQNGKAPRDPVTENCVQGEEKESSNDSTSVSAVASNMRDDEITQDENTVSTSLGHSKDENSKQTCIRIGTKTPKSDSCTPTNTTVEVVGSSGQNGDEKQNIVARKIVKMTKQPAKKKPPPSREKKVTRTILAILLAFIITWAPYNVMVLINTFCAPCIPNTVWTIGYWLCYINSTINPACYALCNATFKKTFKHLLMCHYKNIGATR
Experimental: as §1, §2

beta 2 = molecular target: T5, beta 2 (Homo sapiens, UniProt P07550); details: read-out: pEC50/pIC50 (converted)
T5 construct: expressed in transfected cells; host or cells: NIH3T3
T5 sequence (P07550 whole entry): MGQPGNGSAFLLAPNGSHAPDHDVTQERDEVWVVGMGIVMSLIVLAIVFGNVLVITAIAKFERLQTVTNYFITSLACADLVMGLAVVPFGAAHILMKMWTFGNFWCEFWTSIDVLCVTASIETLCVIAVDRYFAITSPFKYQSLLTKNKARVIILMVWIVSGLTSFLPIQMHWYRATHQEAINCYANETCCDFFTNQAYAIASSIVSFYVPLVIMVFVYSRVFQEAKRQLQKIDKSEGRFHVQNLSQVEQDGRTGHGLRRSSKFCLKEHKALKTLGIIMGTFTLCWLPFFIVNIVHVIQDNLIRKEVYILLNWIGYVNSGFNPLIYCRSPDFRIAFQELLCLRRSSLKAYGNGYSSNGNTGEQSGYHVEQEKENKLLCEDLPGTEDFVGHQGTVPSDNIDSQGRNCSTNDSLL
Experimental: as §1, §2

Histamine 3 = molecular target: T6, Histamine 3 (Homo sapiens, UniProt Q9Y5N1); details: read-out: pEC50/pIC50 (converted)
T6 construct: expressed in transfected cells; host or cells: NIH3T3
T6 sequence (Q9Y5N1 whole entry): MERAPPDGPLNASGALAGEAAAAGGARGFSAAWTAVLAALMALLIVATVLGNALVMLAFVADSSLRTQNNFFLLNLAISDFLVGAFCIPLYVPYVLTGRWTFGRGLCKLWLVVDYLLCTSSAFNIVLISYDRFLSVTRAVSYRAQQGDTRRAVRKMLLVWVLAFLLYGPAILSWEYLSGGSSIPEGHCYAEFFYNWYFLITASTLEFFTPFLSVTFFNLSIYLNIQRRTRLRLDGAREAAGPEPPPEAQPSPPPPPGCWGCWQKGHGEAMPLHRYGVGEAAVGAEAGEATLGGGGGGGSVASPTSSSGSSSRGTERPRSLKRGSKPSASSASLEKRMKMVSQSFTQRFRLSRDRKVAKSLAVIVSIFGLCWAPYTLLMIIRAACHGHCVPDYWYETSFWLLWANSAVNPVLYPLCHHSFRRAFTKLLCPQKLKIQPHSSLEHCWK
Experimental: as §1, §2

m1 = molecular target: T7, m1 (Homo sapiens, UniProt P11229); details: read-out: pEC50/pIC50 (converted)
T7 construct: expressed in transfected cells; host or cells: NIH3T3
T7 sequence (P11229 1-460): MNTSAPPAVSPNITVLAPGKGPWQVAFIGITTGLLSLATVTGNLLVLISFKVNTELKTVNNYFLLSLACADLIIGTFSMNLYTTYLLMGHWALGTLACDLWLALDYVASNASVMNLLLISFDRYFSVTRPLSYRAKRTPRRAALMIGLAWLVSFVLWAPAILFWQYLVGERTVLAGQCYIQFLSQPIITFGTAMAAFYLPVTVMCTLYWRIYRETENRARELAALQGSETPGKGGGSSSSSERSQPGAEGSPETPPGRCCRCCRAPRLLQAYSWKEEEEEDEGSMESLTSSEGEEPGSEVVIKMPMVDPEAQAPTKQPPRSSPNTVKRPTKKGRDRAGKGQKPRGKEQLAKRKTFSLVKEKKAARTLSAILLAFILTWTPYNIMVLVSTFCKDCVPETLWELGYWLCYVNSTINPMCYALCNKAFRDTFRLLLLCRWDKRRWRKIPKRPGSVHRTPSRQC
Experimental: as §1, §2

CCK-A = molecular target: T8, CCK-A (Homo sapiens, UniProt P32238); details: agonist; read-out: pEC50/pIC50 (converted)
T8 construct: expressed in transfected cells; host or cells: NIH3T3
T8 sequence (P32238 whole entry): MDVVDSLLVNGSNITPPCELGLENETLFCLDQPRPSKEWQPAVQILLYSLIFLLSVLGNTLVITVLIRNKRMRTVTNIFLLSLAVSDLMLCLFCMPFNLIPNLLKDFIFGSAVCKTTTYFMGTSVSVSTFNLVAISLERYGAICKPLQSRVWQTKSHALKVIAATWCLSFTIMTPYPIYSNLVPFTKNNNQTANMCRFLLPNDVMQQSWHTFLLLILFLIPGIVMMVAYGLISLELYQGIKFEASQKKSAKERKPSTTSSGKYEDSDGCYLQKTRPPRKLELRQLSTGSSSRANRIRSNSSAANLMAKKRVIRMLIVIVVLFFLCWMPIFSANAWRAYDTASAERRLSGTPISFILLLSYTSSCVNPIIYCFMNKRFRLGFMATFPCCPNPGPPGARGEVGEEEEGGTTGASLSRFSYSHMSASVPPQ
Experimental: as §1, §2

5HT2B = 5HT2B (Homo sapiens, UniProt P41595); parameters: expressed in transfected cells; details: read-out: pEC50/pIC50 (converted)
5HT2B, sequence (P41595 whole entry, species assumed): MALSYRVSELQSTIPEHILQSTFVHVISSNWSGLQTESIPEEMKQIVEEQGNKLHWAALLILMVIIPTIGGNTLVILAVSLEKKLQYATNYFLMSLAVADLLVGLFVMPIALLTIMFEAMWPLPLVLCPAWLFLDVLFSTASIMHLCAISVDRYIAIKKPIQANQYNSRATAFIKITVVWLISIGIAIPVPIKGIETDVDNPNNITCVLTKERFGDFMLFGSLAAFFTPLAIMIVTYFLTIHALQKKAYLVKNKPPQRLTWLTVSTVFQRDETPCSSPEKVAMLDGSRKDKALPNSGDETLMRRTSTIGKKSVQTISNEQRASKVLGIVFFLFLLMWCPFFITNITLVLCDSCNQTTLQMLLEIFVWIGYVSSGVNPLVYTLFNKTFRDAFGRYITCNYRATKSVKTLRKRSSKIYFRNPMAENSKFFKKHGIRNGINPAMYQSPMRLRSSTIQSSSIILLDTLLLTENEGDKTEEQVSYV
Experimental: as §1, §2

T1 sequence (P24530 27-442): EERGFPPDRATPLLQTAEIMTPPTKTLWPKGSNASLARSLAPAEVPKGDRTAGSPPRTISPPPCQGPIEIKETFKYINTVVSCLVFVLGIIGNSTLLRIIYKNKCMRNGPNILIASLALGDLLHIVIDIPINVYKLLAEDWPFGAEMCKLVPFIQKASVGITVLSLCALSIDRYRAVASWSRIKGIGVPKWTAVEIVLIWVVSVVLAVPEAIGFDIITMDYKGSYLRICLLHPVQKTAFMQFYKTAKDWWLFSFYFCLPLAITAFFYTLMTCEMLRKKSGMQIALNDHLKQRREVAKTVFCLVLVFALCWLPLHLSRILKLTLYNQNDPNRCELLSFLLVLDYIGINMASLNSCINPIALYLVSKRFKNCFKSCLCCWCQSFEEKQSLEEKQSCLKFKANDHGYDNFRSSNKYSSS

## COc1ccc(CC(=O)N(Cc2ccc(C)cc2)C2CCN(C)CC2)cc1 [Example 50ELH27, 2-(4-Methoxyphenyl)-N-(4-methylbenzyl)-N-(1-methylpiperidin-4-yl)acetamide]
endothelinB
  EC50: > 3.16 µM
Alpha 2C; agonist
  EC50: > 3.16 µM
Alpha 2C; antagonist
  IC50: > 3.16 µM
5-HT7; agonist
  EC50: > 3.16 µM
5-HT7; inverse agonist
  IC50: 0.126 µM
m2; agonist
  EC50: > 3.16 µM
m2; antagonist
  IC50: > 3.16 µM
Beta 2; agonist
  EC50: > 3.16 µM
Beta 2; antagonist
  IC50: > 3.16 µM
Histamine 3; agonist
  EC50: > 3.16 µM
Histamine 3; antagonist
  IC50: > 3.16 µM
m1; agonist
  EC50: > 3.16 µM
m1; antagonist
  IC50: > 3.16 µM
CCK-A
  EC50: > 3.16 µM
5HT2B; agonist
  EC50: > 3.16 µM
5HT2B; inverse agonist
  IC50: 0.126 µM
